Reference: patent publication US9487489B2, “Halogen-substituted pyrazole derivatives as pest-control agents” (BAYER CROPSCIENCE AKTIENGESELLSCHAFT, priority 2013, dated 2016)

How the values were obtained:
[1] = system: engorged adult female cattle ticks (Boophilus microplus); assay: Boophilus microplus injection test (BOOPMI Inj); assay type: in vivo; details: application rate 20 μg/animal; injection into abdomen; assessed after 7 days
Method in brief: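 Efficacy is read at 7 days as fertile egg laying (100% = no fertile eggs laid; 0% = all eggs fertile), with eggs of unclear fertility stored until larvae hatch at about 42 days. Five engorged adult females per dose each receive an abdominal injection of 1 μl compound dissolved in DMSO.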

[2] = system: adult cat fleas (Ctenocephalides felis); assay: Ctenocephalides felis oral test (CTECFE); assay type: in vivo; details: application rate 100 ppm in citrated cattle blood; after 2 days
Method in brief: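 Mortality read at 2 days as percent of fleas killed. Compound predissolved in DMSO, diluted into citrated cattle blood and offered to roughly 20 unfed adult C. felis via parafilm membrane feeder.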

[3] = system: L1 larvae of the Australian sheep blowfly (Lucilia cuprina); assay: Lucilia cuprina test (LUCICU); assay type: in vivo; details: application rate 100 ppm; after 2 days
Method in brief: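 Percent mortality read at 2 days; 100% = all larvae killed, 0% = none. Test compound, predissolved in DMSO and water-diluted to the wanted level, was mixed into minced horsemeat holding roughly 20 first-instar larvae.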

[4] = system: adult houseflies (Musca domestica); assay: Musca domestica test (MUSCDO); assay type: in vivo; details: application rate 100 ppm; after 2 days
Procedure: F. Musca domestica Test (MUSCDO)
Solvent: dimethyl sulphoxide
To produce a suitable preparation of active compound, 10 mg of active compound are mixed with 0.5 ml of dimethyl sulphoxide, and the concentrate is diluted with water to the desired concentration.
Vessels containing a sponge treated with sugar solution and the active compound preparation of the desired concentration are populated with 10 adult houseflies (Musca domestica).
After 2 days, the kill in % is determined. 100% means that all of the flies have been killed; 0% means that none of the flies have been killed.

[5] = system: larvae of the mustard beetle (Phaedon cochleariae); assay: Phaedon cochleariae spray test (PHAECO); assay type: in vivo; details: Chinese cabbage leaf discs, after 7 days
Method in brief: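 Kill of mustard beetle larvae is read as % mortality 7 days after spraying. Spray liquid: active compound in acetone plus dimethylformamide, brought up with water holding 1000 ppm alkylaryl polyglycol ether emulsifier and diluted further in emulsifier-water.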

[6] = system: caterpillars of the armyworm (Spodoptera frugiperda); assay: Spodoptera frugiperda spray test (SPODFR); assay type: in vivo; details: maize leaf discs, after 7 days
Method in brief: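 Percent kill read at day 7 on caterpillar-infested maize leaf discs. Discs were first sprayed with aqueous emulsifier-containing (1000 ppm) preparations made from acetone/dimethylformamide solutions, and dried. Scale: 0% none dead, 100% all dead.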

[7] = system: greenhouse red spider mite (Tetranychus urticae); assay: Tetranychus urticae spray test, OP-resistant (TETRUR); assay type: in vivo; details: bean leaf discs, after 6 days
Method in brief: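 Percent kill, scored 6 days post-spray (0% = none dead, 100% = all dead), on Phaseolus vulgaris leaf discs infested with every life stage of the OP-resistant spider mite. Compound dissolved in acetone plus DMF, diluted to test concentration with emulsifier-containing water (1000 ppm).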

[8] = system: adult dog ticks (Rhipicephalus sanguineus); assay: Rhipicephalus sanguineus in vitro contact test with adult brown dog ticks (T2); details: after 48 h
Procedure: T2. Rhipicephalus sanguineus-in vitro Contact Tests with Adult Brown Dog Ticks
For the coating of the test tubes, initially 9 mg of active compound are dissolved in 1 ml of acetone p.a. and then diluted with acetone p.a. to the desired concentration. By turning and rocking on an orbital shaker (2 h of rocking rotation at 30 rpm), 250 μl of the solution are distributed homogeneously on the internal walls and the floor of a 25 ml test tube. At 900 ppm active compound solution and 44.7 cm^2 internal surface, an area dose of 5 μg/cm^2 is achieved for homogeneous distribution.
After evaporation of the solvent, the tubes are populated with 5-10 adult dog ticks (Rhipicephalus sanguineus), sealed with a perforated plastic lid and incubated in a horizontal position in the dark at room temperature and ambient humidity. After 48 h, the efficacy is determined. To this end, the ticks are knocked to the floor of the tube and incubated on a hotplate at 45-50° C. for at most 5 min Ticks which remain motionless on the floor or move in an uncoordinated manner such that they are not able to deliberately avoid the heat by climbing upwards are considered to be dead or moribund.
An efficacy of 100% means that all ticks were dead or moribund. 0% efficacy means that none of the ticks had been damaged.

[9] = logP determination by HPLC on a reversed-phase column (C18), EEC Directive 79/831 Annex V.A8; assay type: physicochemical; details: HPLC on reversed-phase column (C18), acetonitrile/water with formic acid, EEC Directive 79/831 Annex V.A8
Method in brief: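 Per EEC 79/831 Annex V.A8, values derive from HPLC retention at 2.0 ml/min and 55° C on a 50*4.6 C18 column. The 10→95% acetonitrile gradient (0.1%/0.09% formic acid) lasted 4.25 min plus a 1.25 min hold; mass detection was by MSD.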

[10] = system: green peach aphid (Myzus persicae); assay: Myzus persicae spray test (MYZUPE); assay type: in vivo; details: application rate 100 g/ha; Chinese cabbage leaf discs; after 6 days
Procedure: G. Myzus persicae-spray Test (MYZUPE)
Solvents: 78 parts by weight of acetone
• 1.5 parts by weight of dimethylformamide Emulsifier: alkylaryl polyglycol ether
To produce a suitable preparation of active compound, 1 part by weight of active compound is dissolved using the stated parts by weight of solvent and made up with water comprising an emulsifier concentration of 1000 ppm until the desired concentration is reached. To produce further test concentrations, the preparation is diluted with emulsifier-containing water.
Discs of Chinese cabbage leaves (Brassica pekinensis) infested by all stages of the green peach aphid (Myzus persicae) are sprayed with an active compound preparation of the desired concentration.
After 6 days, the efficacy in % is determined 100% here means that all of the aphids have been killed; 0% means that no aphids have been killed.

[11] = system: adult cat fleas (Ctenocephalides felis); assay: Ctenocephalides felis in vitro contact test with adult cat fleas (T1); details: after 48 h
Method in brief: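 Adult cat fleas (Ctenocephalides felis), 5-10 per tube, were exposed to the inner surface of 25 ml test tubes coated with compound in acetone. Tubes were incubated lying flat under ambient conditions. Efficacy was then read by standing tubes upright and knocking the fleas to the floor. Fleas that stayed motionless or moved uncoordinatedly counted as dead or moribund, where 100% means all fleas dead or moribund and 0% means none harmed.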

Row | Compound | efficacy (laying of fertile eggs) [1] [%] | efficacy (kill in %) [2] [%] | efficacy (kill in %) [3] [%] | efficacy (kill in %) [4] [%] | efficacy in % ([5]; application rate 500 g/ha) [%] | efficacy in % ([6]; application rate 500 g/ha) [%] | efficacy in % ([7]; application rate 100 g/ha) [%] | efficacy (dead or moribund ticks) ([8]; application rate 1 μg/cm^2) [%] | logP [9] | efficacy in % [10] [%] | efficacy in % ([5]; application rate 100 g/ha) [%] | efficacy in % ([6]; application rate 100 g/ha) [%] | efficacy (dead or moribund ticks) ([8]; application rate 5 μg/cm^2) [%] | efficacy in % ([7]; application rate 500 g/ha) [%] | efficacy (dead or moribund fleas) ([11]; application rate 1 μg/cm^2) [%] | efficacy (dead or moribund fleas) ([11]; application rate 5 μg/cm^2) [%]
1 | Cn1nc(C(F)(F)C(F)(F)F)c(C(F)(F)F)c1-n1cc(-c2cc(C(=O)NC3CC3)cc(C(F)(F)F)c2)cn1 [Ic-59] | 100 | 100 | 100 | 100 | 100 | 100 | 90 | 100 |  |  |  |  |  |  |  | 
2 | Cn1nc(C(F)(F)C(F)(F)F)c(C=O)c1-n1cc(-c2ccc(Cl)c(C(=O)NC3(C#N)CC3)c2)cn1 [Ic-121] |  |  |  |  |  |  | 100 |  | 3.09 | 100 | 100 |  |  |  |  | 
3 | Cn1nc(C(F)(F)C(F)(F)F)c(C(F)(F)F)c1-n1cc(-c2cc(C(=O)NC3CC3)cc(F)c2F)cn1 [Ic-61] | 100 | 100 | 100 | 80 | 100 |  |  |  |  |  |  | 100 | 80 |  |  | 
4 | Cn1nc(C(F)(F)C(F)(F)F)c(C(F)(F)F)c1-n1cc(-c2ccc(F)c(C(=O)NC3CC3)c2F)cn1 [Ic-174] | 100 | 100 | 100 | 100 | 100 | 100 |  | 100 |  |  |  |  | 100 |  |  | 
5 | Cn1nc(C(F)(F)C(F)(F)F)c(C(F)(F)F)c1-n1cc(-c2cc(Cl)cc(C(=O)NC3CC3)c2)cn1 [Ic-44] | 100 | 100 | 100 | 80 | 100 | 100 |  |  |  |  |  |  |  | 80 |  | 
6 | Cn1nc(C(F)(F)F)c([S+](C)[O-])c1-n1cc(-c2ccc(Cl)c(C(=O)NC3(C#N)CC3)c2)cn1 (centres unmarked) [Ic-134] |  |  |  |  |  |  | 100 |  | 2.16 | 100 | 100 |  |  |  |  | 
7 | CC(NC(=O)c1cc(-c2cnn(-c3c(C(F)(F)F)c(C(F)(F)C(F)(F)F)nn3C)c2)ccc1Cl)C(N)=O (centres unmarked) [Ic-154] | 100 | 100 | 100 | 90 | 100 | 100 |  |  |  |  |  |  |  | 100 | 100 | 80
8 | CC(CC1CC1)NC(=O)c1cc(-c2cnn(-c3c(C(F)(F)F)c(C(F)(F)C(F)(F)F)nn3C)c2)ccc1Cl (centres unmarked) [Ic-161] | 100 | 100 | 100 | 80 | 100 | 100 |  | 80 |  |  |  |  | 100 | 100 |  | 
